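1) Cells in 96-well plates. 2) Compound, 48 h, 5 concentrations. 3) Linear interpolation between surrounding doses. 4) Unreached endpoint = highest concentration. GI50 = concentration required for 50% inhibition of growth.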 Calls of active or inactive are those of the source. No stated cut-off is given here; in the data, active = GI50 up to about 1.1 µM and inactive = higher.
Experiments:
Assay in all cases: growth of human tumour cells (NCI), 48 h
SNB-78 = system: SNB-78
RPMI-8226 = system: RPMI-8226
CAKI-1 = system: CAKI-1
SF-295 = system: SF-295
CCRF-CEM = system: CCRF-CEM
HT-29 = system: HT-29
OVCAR-5 = system: OVCAR-5
SK-MEL-5 = system: SK-MEL-5
UO-31 = system: UO-31
SK-OV-3 = system: SK-OV-3
NCI-H460 = system: NCI-H460
SK-MEL-2 = system: SK-MEL-2
HOP-92 = system: HOP-92
LOX IMVI = system: LOX IMVI
HCC 2998 = system: HCC 2998
M14 = system: M14
ACHN = system: ACHN
T47D = system: T47D
MCF7 = system: MCF7
PC-3 = system: PC-3

Measured: GI50

CCOC(=O)Nc1ccc(S(=O)(=O)OC)cc1.CCOC(=O)Nc1ccc(S(=O)(=O)OC)cc1.NNC(=O)c1ccncc1
inactive: SNB-78 > 50 µM | RPMI-8226 14.6 µM | CAKI-1 > 50 µM | SF-295 > 50 µM | CCRF-CEM 9.08 µM | HT-29 44.7 µM | OVCAR-5 > 50 µM | SK-MEL-5 > 50 µM | UO-31 > 50 µM | SK-OV-3 > 50 µM | NCI-H460 > 50 µM | SK-MEL-2 > 50 µM | HOP-92 > 50 µM | LOX IMVI > 50 µM | HCC 2998 > 50 µM | M14 > 50 µM | ACHN > 50 µM

Cc1ccc([S+](c2ccccc2)c2cc(C)ccc2C)cc1.O=C(OC(C(=O)[O-])C(OC(=O)c1ccccc1)C(=O)O)c1ccccc1 (stereo not given)
inactive: T47D 6.98 µM | SNB-78 17.7 µM | RPMI-8226 2 µM | CAKI-1 14.6 µM | SF-295 11.9 µM | CCRF-CEM 12.8 µM | MCF7 4.88 µM | HT-29 7.69 µM | OVCAR-5 23.2 µM | SK-MEL-5 3.85 µM | UO-31 38 µM | SK-OV-3 16.9 µM | NCI-H460 10.7 µM | PC-3 2.83 µM | SK-MEL-2 3.51 µM | HOP-92 13.5 µM | LOX IMVI 6.85 µM | HCC 2998 7.46 µM | M14 18.9 µM | ACHN 22.9 µM

CC1(C(=O)Nc2ccc3cc4ccccc4cc3c2)CC2(C)CC(C)(C1)C(O)NC2=O (stereo not given)
inactive: SNB-78 > 100 µM | RPMI-8226 61.1 µM | CAKI-1 > 100 µM | SF-295 66.5 µM | CCRF-CEM 34.4 µM | HT-29 92.5 µM | OVCAR-5 > 100 µM | SK-MEL-5 > 100 µM | UO-31 > 100 µM | SK-OV-3 > 100 µM | NCI-H460 56 µM | SK-MEL-2 > 100 µM | HOP-92 59.3 µM | LOX IMVI 62.4 µM | HCC 2998 > 100 µM | M14 > 100 µM | ACHN 36.7 µM

COc1ccc(/C=C(\C(C)=O)C(=O)Nc2ccccc2)cc1
inactive: SNB-78 > 100 µM | RPMI-8226 > 100 µM | CAKI-1 > 100 µM | SF-295 > 100 µM | CCRF-CEM > 100 µM | HT-29 > 100 µM | OVCAR-5 > 100 µM | SK-MEL-5 > 100 µM | UO-31 > 100 µM | SK-OV-3 > 100 µM | NCI-H460 > 100 µM | SK-MEL-2 > 100 µM | HOP-92 > 100 µM | LOX IMVI > 100 µM | HCC 2998 > 100 µM | M14 > 100 µM | ACHN > 100 µM

C=C(CN(C)C)C(=O)c1ccccc1C
inactive: SNB-78 > 100 µM | RPMI-8226 15.7 µM | CAKI-1 27.5 µM | SF-295 > 100 µM | CCRF-CEM 7.85 µM | HT-29 > 100 µM | OVCAR-5 > 100 µM | SK-MEL-5 > 86.5 µM | UO-31 37.4 µM | SK-OV-3 > 100 µM | NCI-H460 > 100 µM | SK-MEL-2 > 100 µM | HOP-92 17.7 µM | LOX IMVI > 69.5 µM | HCC 2998 > 100 µM | M14 18.1 µM | ACHN 24.7 µM

O=C(C(=O)n1ncc(Cl)c(Cl)c1=O)n1ncc(Cl)c(Cl)c1=O
inactive: SNB-78 28.6 µM | RPMI-8226 4.18 µM | CAKI-1 17.7 µM | SF-295 93.5 µM | CCRF-CEM 6.85 µM | HT-29 18.2 µM | OVCAR-5 > 100 µM | SK-MEL-5 35.5 µM | UO-31 48.5 µM | SK-OV-3 > 53.8 µM | NCI-H460 45.7 µM | SK-MEL-2 23.3 µM | HOP-92 23.2 µM | LOX IMVI 30.1 µM | HCC 2998 23.3 µM | M14 25.1 µM | ACHN 16.9 µM

Source: ChEMBL document CHEMBL1201862, “PubChem BioAssay data set” (2004)
